Values quoted from earlier work, collected in patent US20060270629A1, “Methanocarba cycloalkyl nucleoside analogues” (Govt of the U.S.A., represented by the Secretary, Dept of …, priority 2000, published 2006).

Tests used:
[1] = biological target: human and turkey P2Y1 receptors; conditions: competitive antagonist; cited from earlier work
P2X1 receptors = biological target: T1, P2X1 receptors (Homo sapiens, UniProt P51575); conditions: cited from earlier work
T1 sequence (P51575 1-399): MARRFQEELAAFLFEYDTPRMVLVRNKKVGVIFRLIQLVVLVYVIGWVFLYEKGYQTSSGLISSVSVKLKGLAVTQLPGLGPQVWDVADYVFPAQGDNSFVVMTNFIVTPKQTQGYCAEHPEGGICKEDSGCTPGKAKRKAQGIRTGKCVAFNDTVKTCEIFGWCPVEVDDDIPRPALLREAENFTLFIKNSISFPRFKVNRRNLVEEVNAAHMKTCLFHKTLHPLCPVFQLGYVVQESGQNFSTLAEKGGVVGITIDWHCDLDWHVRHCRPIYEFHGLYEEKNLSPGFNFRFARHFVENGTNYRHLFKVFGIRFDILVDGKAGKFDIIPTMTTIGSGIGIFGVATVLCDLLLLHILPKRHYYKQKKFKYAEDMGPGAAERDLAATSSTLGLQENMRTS

P2Y2 = P2Y2 (Homo sapiens, UniProt P41231); conditions: cited from earlier work
P2Y4 = P2Y4 (Homo sapiens, UniProt P51582); conditions: cited from earlier work
P2Y6 = P2Y6 (Homo sapiens, UniProt Q15077); conditions: cited from earlier work
[2] = biological target: T2, adenylyl cyclase-linked P2Y receptor in C6 glioma cells (Rattus norvegicus, UniProt Q9EPX4); conditions: cited from earlier work
T2 construct: at the adenylyl cyclase-linked P2Y receptor in C6 glioma cells; host or cells: C6 glioma cells (endogenous receptor)

[3] = test system: novel avian P2Y receptor that inhibits adenylyl cyclase; conditions: cited from earlier work

T2 sequence (Q9EPX4 whole entry): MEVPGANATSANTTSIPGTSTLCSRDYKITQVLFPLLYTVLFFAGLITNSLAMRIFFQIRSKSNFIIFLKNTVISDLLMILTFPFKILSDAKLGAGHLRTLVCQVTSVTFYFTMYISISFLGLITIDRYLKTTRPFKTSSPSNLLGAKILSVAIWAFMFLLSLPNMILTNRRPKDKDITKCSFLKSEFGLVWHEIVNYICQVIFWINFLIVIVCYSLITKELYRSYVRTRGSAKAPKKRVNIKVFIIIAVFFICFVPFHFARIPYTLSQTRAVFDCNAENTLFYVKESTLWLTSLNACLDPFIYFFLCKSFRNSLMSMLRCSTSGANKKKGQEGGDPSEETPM
P2Y2, sequence (P41231 whole entry, species assumed): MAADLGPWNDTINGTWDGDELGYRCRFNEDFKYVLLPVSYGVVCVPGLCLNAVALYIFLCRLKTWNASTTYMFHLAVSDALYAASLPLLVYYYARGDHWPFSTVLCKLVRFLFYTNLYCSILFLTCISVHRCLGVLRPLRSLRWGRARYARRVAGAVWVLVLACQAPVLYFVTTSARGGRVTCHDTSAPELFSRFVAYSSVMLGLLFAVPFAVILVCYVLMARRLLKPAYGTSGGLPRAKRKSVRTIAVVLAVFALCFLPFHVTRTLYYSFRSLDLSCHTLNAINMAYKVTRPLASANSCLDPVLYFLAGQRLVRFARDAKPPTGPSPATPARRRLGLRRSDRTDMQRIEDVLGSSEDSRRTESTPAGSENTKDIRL
P2Y4, sequence (P51582 whole entry, species assumed): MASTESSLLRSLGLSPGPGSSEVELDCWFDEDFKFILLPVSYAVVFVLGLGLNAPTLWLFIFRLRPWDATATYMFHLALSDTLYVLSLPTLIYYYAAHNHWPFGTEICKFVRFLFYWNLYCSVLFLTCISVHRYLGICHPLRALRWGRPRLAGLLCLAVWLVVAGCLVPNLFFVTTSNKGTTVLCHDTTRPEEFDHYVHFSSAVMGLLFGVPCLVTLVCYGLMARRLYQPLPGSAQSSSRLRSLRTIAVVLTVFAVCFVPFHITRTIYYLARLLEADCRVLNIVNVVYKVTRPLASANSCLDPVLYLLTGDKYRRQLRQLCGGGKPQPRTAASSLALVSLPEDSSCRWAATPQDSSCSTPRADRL
P2Y6, sequence (Q15077 whole entry, species assumed): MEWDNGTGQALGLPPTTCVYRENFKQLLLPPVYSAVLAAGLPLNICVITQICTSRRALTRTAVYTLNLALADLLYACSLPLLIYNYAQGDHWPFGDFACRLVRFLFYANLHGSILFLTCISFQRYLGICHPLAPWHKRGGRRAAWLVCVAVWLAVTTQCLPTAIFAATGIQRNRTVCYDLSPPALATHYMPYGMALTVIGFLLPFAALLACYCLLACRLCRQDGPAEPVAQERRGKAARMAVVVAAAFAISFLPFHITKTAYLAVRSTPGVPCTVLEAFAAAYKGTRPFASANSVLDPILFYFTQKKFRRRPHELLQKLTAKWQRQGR

## CNc1ncnc2c1ncn2[C@H]1C[C@H](OP(=O)(O)O)[C@@H](COP(=O)(O)O)O1 [Compound 1a, N6-methyl-2′-deoxyadenosine-3′,5′-bisphosphate]
[1]
  Kb: ~100 nM
P2X1 receptors
  EC50: 1200 nM
P2Y2
  activity at P2Y2: inactive
P2Y4
  activity at P2Y4: inactive
P2Y6
  activity at P2Y6: inactive
[2]
  activity at adenylyl cyclase-linked P2Y receptor in C6 glioma cells: inactive
[3]
  activity at novel avian P2Y receptor: inactive
